Where two headings read alike, the source gives them in different places.
Legend:
[1] = tested on: Beet Armyworm (Spodoptera exigua, LAPHEG); experiment: Bioassay on Beet Armyworm (BAW), 128-well diet tray assay; type: in vivo
Outline: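 Second-instar larvae, one to five per well, placed on artificial diet surface-treated with 50 μg/cm^2 compound applied in 90:10 acetone-water and dried. Held 5–7 days at 25° C., 14:10 light-dark. Percent mortality recorded per well and averaged over eight wells.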

[2] = tested on: Cabbage Looper (Trichoplusia ni, TRIPNI); experiment: Bioassay on Cabbage Looper (CL), 128-well diet tray assay; type: in vivo; conditions: Trichoplusia ni
Outline: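 Percent mortality, averaged across eight replicate wells, was scored after five to seven days at 25° C. under a 14:10 light-dark cycle. Each well held one to five second instar larvae on artificial diet treated at 50 μg/cm^2 with compound from 90:10 acetone-water, allowed to dry before infestation.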

[3] = Beet Armyworm, 128-well diet tray assay, read-out: BAW rating
[4] = Cabbage Looper, 128-well diet tray assay, read-out: CL rating
[5] = Species BAW (Beet Armyworm), read-out: BAW (Biological Results, rating)
[6] = Species CL (Cabbage Looper), read-out: CL (Biological Results, rating)

Compound | pest or weed control at 50 µg/cm2 [1, 3] | pest or weed control at 50 µg/cm2 [2, 4] | pest or weed control at 50 µg/cm2 [1, 5] | pest or weed control at 50 µg/cm2 [2, 6]
CC(=O)Nc1ccc(NC(=O)c2cc(NC(=O)[C@H]3[C@H](c4ccc(Cl)c(Cl)c4)C3(Cl)Cl)ccc2Cl)c(F)c1 (relative stereo) [PF41, trans-N-(4-Acetamido-2-fluorophenyl)-2-chloro-5-(2,2-dichloro-3-(3,4-dichlorophenyl)cyclopropane-1-carboxamido)benzamide] | 50 to 100% | 50 to 100% | – | –
Cc1cc(F)cc(C)c1NC(=O)c1cc(NC(=O)[C@H]2[C@H](c3cc(Cl)cc(Cl)c3)C2(Cl)Cl)ccc1Cl (relative stereo) [PF43, trans-2-Chloro-5-(2,2-dichloro-3-(3,5-dichlorophenyl)cyclopropane-1-carboxamido)-N-(4-fluoro-2,6-dimethylphenyl)benzamide] | 50 to 100% | 50 to 100% | – | –
N#CSc1ccc(NC(=O)c2cc(NC(=O)[C@H]3[C@H](c4cc(Cl)cc(Cl)c4)C3(Cl)Cl)ccc2Cl)cc1 (relative stereo) [PF45, trans-2-Chloro-5-(2,2-dichloro-3-(3,5-dichlorophenyl)cyclopropane-1-carboxamido)-N-(4-thiocyanatophenyl)benzamide] | 50 to 100% | 50 to 100% | – | –
Cc1cc(F)ccc1NC(=O)c1cc(NC(=O)[C@H]2[C@H](c3cc(Cl)c(Cl)c(Cl)c3)C2(Cl)Cl)ccc1Cl (relative stereo) [PF47, trans-2-Chloro-5-(2,2-dichloro-3-(3,4,5-trichlorophenyl)cyclopropane-1-carboxamido)-N-(4-fluoro-2-methylphenyl)benzamide] | 50 to 100% | 50 to 100% | – | –
Cc1c(F)ccc(NC(=O)c2cc(NC(=O)[C@H]3[C@H](c4cc(Cl)cc(Cl)c4)C3(Cl)Cl)ccc2Cl)c1F (relative stereo) [PF55, trans-2-Chloro-5-(2,2-dichloro-3-(3,5-dichlorophenyl)cyclopropane-1-carboxamido)-N-(2,4-difluoro-3-methylphenyl)benzamide] | 50 to 100% | 50 to 100% | – | –
Cc1cc(C(F)(C(F)(F)F)C(F)(F)F)cc(C)c1NC(=O)c1cc(NC(=O)[C@H]2[C@H](c3cc(Cl)cc(Cl)c3)C2(Cl)Cl)ccc1Cl (relative stereo) [PF60, trans-2-Chloro-5-(2,2-dichloro-3-(3,5-dichlorophenyl)cyclopropane-1-carboxamido)-N-(2,6-dimethyl-4-(perfluoropropan-2-yl)phenyl)benzamide] | 50 to 100% | 50 to 100% | – | –
COc1ccc([C@H]2[C@H](C(=O)Nc3ccc(Cl)c(C(=O)Nc4ccc(F)cc4)c3)C2(Cl)Cl)cc1 (relative stereo) [PF65, trans-2-Chloro-5-(2,2-dichloro-3-(4-methoxyphenyl)cyclopropane-1-carboxamido)-N-(4-fluorophenyl)benzamide] | 50 to 100% | 50 to 100% | – | –
O=C(Nc1ccc(F)c(C(F)(F)F)c1)c1cc(NC(=O)[C@H]2[C@H](c3cc(Cl)cc(Cl)c3)C2(Cl)Cl)ccc1Cl (relative stereo) [PF70, trans-2-Chloro-5-(2,2-dichloro-3-(3,5-dichlorophenyl)cyclopropane-1-carboxamido)-N-(4-fluoro-3-(trifluoromethyl)phenyl)benzamide] | 50 to 100% | 50 to 100% | – | –
Cc1cc([N+](=O)[O-])ccc1NC(=O)c1cc(NC(=O)[C@H]2[C@H](c3cc(Cl)cc(Cl)c3)C2(Cl)Cl)ccc1Cl (relative stereo) [PF75, trans-2-Chloro-5-(2,2-dichloro-3-(3,5-dichlorophenyl)cyclopropane-1-carboxamido)-N-(2-methyl-4-nitrophenyl)benzamide] | 50 to 100% | 50 to 100% | – | –
O=C(Nc1ccc(NC(=O)c2cc(NC(=O)[C@H]3[C@H](c4cc(Cl)cc(Cl)c4)C3(Cl)Cl)ccc2Cl)cc1)c1ccccc1 (relative stereo) [PF104, trans-N-(4-Benzamidophenyl)-2-chloro-5-(2,2-dichloro-3-(3,5-dichlorophenyl)cyclopropane-1-carboxamido)benzamide] | 50 to 100% | 50 to 100% | – | –
N#CC1(C(=O)Nc2ccc(NC(=O)c3cc(NC(=O)[C@H]4[C@H](c5cc(Cl)cc(Cl)c5)C4(Cl)Cl)ccc3Cl)cc2)CC1 (relative stereo) [PF109, trans-2-Chloro-N-(4-(1-cyanocyclopropane-1-carboxamido)phenyl)-5-(2,2-dichloro-3-(3,5-dichlorophenyl)cyclopropane-1-carboxamido)benzamide] | 50 to 100% | 50 to 100% | – | –
O=C(Nc1nc(C(F)(F)F)cs1)c1cc(NC(=O)[C@H]2[C@H](c3cc(Cl)cc(Cl)c3)C2(Cl)Cl)ccc1Cl (relative stereo) [PF134, trans-2-Chloro-5-(2,2-dichloro-3-(3,5-dichlorophenyl)cyclopropane-1-carboxamido)-N-(4-(trifluoromethyl)thiazol-2-yl)benzamide] | 50 to 100% | 50 to 100% | – | –
Cc1ccc(-c2csc(NC(=O)c3cc(NC(=O)[C@H]4[C@H](c5cc(Cl)cc(Cl)c5)C4(Cl)Cl)ccc3Cl)n2)cc1 (relative stereo) [PF136, trans-2-Chloro-5-(2,2-dichloro-3-(3,5-dichlorophenyl)cyclopropane-1-carboxamido)-N-(4-(p-tolyl)thiazol-2-yl)benzamide] | 50 to 100% | 50 to 100% | – | –
O=C(Nc1cc(C(F)(F)F)[nH]n1)c1cc(NC(=O)[C@H]2[C@H](c3cc(Cl)cc(Cl)c3)C2(Cl)Cl)ccc1Cl (relative stereo) [PF138, trans-2-Chloro-5-(2,2-dichloro-3-(3,5-dichlorophenyl)cyclopropane-1-carboxamido)-N-(5-(trifluoromethyl)-1H-pyrazol-3-yl)benzamide] | 50 to 100% | 50 to 100% | – | –
COc1c(Cl)cc([C@H]2[C@H](C(=O)Nc3ccc(Cl)c(C(=O)Nc4ccc(F)cc4)c3)C2(Cl)Cl)cc1Cl (relative stereo) [PF156, trans-2-Chloro-5-(2,2-dichloro-3-(3,5-dichloro-4-methoxyphenyl)cyclopropane-1-carboxamido)-N-(4-fluorophenyl)benzamide] | 50 to 100% | 50 to 100% | – | –
O=C(Nc1ccc(NC(=O)C2(C(F)(F)F)CC2)cc1)c1cc(NC(=O)[C@H]2[C@H](c3cc(Cl)cc(Cl)c3)C2(Cl)Cl)ccc1Cl (relative stereo) [PF162, trans-2-Chloro-5-(2,2-dichloro-3-(3,5-dichlorophenyl)cyclopropane-1-carboxamido)-N-(4-(1-(trifluoromethyl)cyclopropane-1-carboxamido)phenyl)benzamide] | 50 to 100% | 50 to 100% | – | –
CC(C)(C)CC(=O)Nc1ccc(NC(=O)c2cc(NC(=O)[C@H]3[C@H](c4cc(Cl)cc(Cl)c4)C3(Cl)Cl)ccc2Cl)cc1 (relative stereo) [PF164, trans-2-Chloro-5-(2,2-dichloro-3-(3,5-dichlorophenyl)cyclopropane-1-carboxamido)-N-(4-(3,3-dimethylbutanamido)phenyl)benzamide] | 50 to 100% | 50 to 100% | – | –
O=C(Nc1c(F)cccc1F)c1cc(NC(=O)C2C(c3cc(Cl)cc(Cl)c3)C2(Cl)Br)ccc1Cl (stereo not drawn) [F168, 5-(trans)-2-Bromo-2-chloro-3-(3,5-dichlorophenyl)cyclopropane-1-carboxamido)-2-chloro-N-(2,6-difluorophenyl)benzamide] | – | – | 50 to 100% | 50 to 100%
Cc1cc(NC(=O)OC(C)(C)C)ccc1NC(=O)c1cc(NC(=O)[C@H]2[C@H](c3cc(Cl)c(Cl)c(Cl)c3)C2(Cl)Cl)ccc1Cl [F278, tert-Butyl (4-(2-chloro-5-((1R,3R)-2,2-dichloro-3-(3,4,5-trichlorophenyl)cyclopropane-1-carboxamido)benzamido)-3-methylphenyl)carbamate] | – | – | 50 to 100% | 50 to 100%
O=C(Nc1cc(F)cc([N+](=O)[O-])c1)c1cc(NC(=O)[C@H]2[C@H](c3ccc(Cl)c(Cl)c3)C2(Cl)Cl)ccc1Cl [F416, 2-Chloro-5-((1R,3R)-2,2-dichloro-3-(3,4-dichlorophenyl)cyclopropane-1-carboxamido)-N-(3-fluoro-5-nitrophenyl)benzamide] | 50 to 100% | 50 to 100% | – | –
O=C(Nc1nc2cc(Cl)ccc2o1)c1cc(NC(=O)C2C(c3cc(Cl)cc(Cl)c3)C2(Cl)Cl)ccc1Cl (stereo not drawn) [F448, 2-Chloro-N-(5-chlorobenzo[d]oxazol-2-yl)-5-(trans)-2,2-dichloro-3-(3,5-dichlorophenyl)cyclopropane-1-carboxamido)benzamide] | 50 to 100% | 50 to 100% | – | –
O=C(Nc1nc2ccc(F)cc2[nH]1)c1cc(NC(=O)C2C(c3cc(Cl)cc(Cl)c3)C2(Cl)Cl)ccc1Cl (stereo not drawn) [F451, 2-Chloro-5-(trans)-2,2-dichloro-3-(3,5-dichlorophenyl)cyclopropane-1-carboxamido)-N-(6-fluoro-1H-benzo[d]imidazol-2-yl)benzamide] | 50 to 100% | 50 to 100% | – | –
Cc1cc(NS(C)(=O)=O)ccc1NC(=O)c1cc(NC(=O)C2C(c3cc(Cl)cc(Cl)c3)C2(Cl)Cl)ccc1Cl (stereo not drawn) [F487, 2-chloro-5-(trans)-2,2-dichloro-3-(3,5-dichlorophenyl)cyclopropane-1-carboxamido)-N-(2-methyl-4-(methylsulfonamido)phenyl)benzamide] | 50 to 100% | 50 to 100% | – | –
